# From patent US20210076677A1, “NOVEL PESTICIDAL COMBINATIONS” (priority 2017, published 2021)
# Assays:
# [1] = tested on: Alternaria solani in tomato; experiment: Field trial, early blight control in tomato (Colby synergy); type: in vivo; conditions: 10 days after application, Mancozeb + Azoxystrobin 1750 g/ha, Chlorantriniprole 150 g/ha
# Procedure: Studies were conducted to compare the efficacy of the combination of amide insecticides with fungicides selected from the various classes and to compare their observed efficacy with the ‘expected_ efficacy when amide insecticides and fungicides were used to treat fungal and insect pests. Any difference between the observed and ‘expected_ efficacy could be attributed to synergy between the two compounds in the control of fungal and insect pests. The expected efficacy of a combination of amide insecticides with fungicides was calculated using the well-established Colby method. […] An unexpected enhancement in efficacy of the combination is then determined by comparing the observed response of the combination to the expected (or predicted) response as calculated from the observed response of each individual component alone. If the observed response of the combination is greater than the expected (or predicted) response, or stated conversely, if the difference between the observed and expected response is greater than zero, then the combination is said to be synergistic or unexpectedly effective. (Colby, S. R., Weeds, 1967(15), p. 20-22) The Colby method requires only a single dose of each active applied alone and the mixture of both doses. The formula used to calculate the expected efficacy (EE) which was compared with the observed efficacy (OE) to determine the efficacy of the present invention is explained hereinbelow: […] The efficacy of the individual actives of the invention and their combinations were evaluated on various fungal and insect pests. The trial was carried out in Randomized Complete Block (RCB) method, all field trials were conducted using this method. Each trial was replicated three times and conducted under GEP guidelines. Application volumes were varied for each mixture. Such field trials were carried out at various locations so as to generate independent data, the locations were chosen randomly across India. […]
# [2] = tested on: Helicoverpa armigera in tomato; experiment: Field trial, fruit borer control in tomato (Colby synergy); type: in vivo; conditions: 10 days after application, Mancozeb + Azoxystrobin 1750 g/ha, Chlorantriniprole 150 g/ha
# Procedure: Studies were conducted to compare the efficacy of the combination of amide insecticides with fungicides selected from the various classes and to compare their observed efficacy with the ‘expected_ efficacy when amide insecticides and fungicides were used to treat fungal and insect pests. Any difference between the observed and ‘expected_ efficacy could be attributed to synergy between the two compounds in the control of fungal and insect pests. The expected efficacy of a combination of amide insecticides with fungicides was calculated using the well-established Colby method.
# In the Colby method, the expected (or predicted) response of a combination of actives is calculated by taking the product of the observed response for each individual component of the combination when applied alone divided by 100 and subtracting this value from the sum of the observed response for each component when applied alone. An unexpected enhancement in efficacy of the combination is then determined by comparing the observed response of the combination to the expected (or predicted) response as calculated from the observed response of each individual component alone. If the observed response of the combination is greater than the expected (or predicted) response, or stated conversely, if the difference between the observed and expected response is greater than zero, then the combination is said to be synergistic or unexpectedly effective. (Colby, S. R., Weeds, 1967(15), p. 20-22) The Colby method requires only a single dose of each active applied alone and the mixture of both doses. […]
# The efficacy of the individual actives of the invention and their combinations were evaluated on various fungal and insect pests. […]
# Further field trials were carried out to test the synergy of the combination amide […] chlorantriniprole in combination with fungicides for the control of Helicoverpa armigera in tomato. […] The percentage efficacy was calculated after 10 days of applications and the results are recorded in the table below: […]
smiles,measurement,setting,value
"CNC(=O)c1cc(Cl)cc(C)c1NC(=O)c1cc(Br)nn1-c1ncccc1Cl [Chlorantriniprole, chlorantraniliprole]","% Disease control, Early Blight Control in tomato 10DAA, Actual",[1]; first trial (columns c2/c3),1.91%
same,"% Disease control, Early Blight Control in tomato 10DAA, Actual",[1]; second trial (columns c4/c5),1.86%
same,"% Disease control, Early Blight Control in tomato 10DAA, Actual",[1]; third trial (columns c6/c7),2.70%
same,"% control of pest, Fruit Borer control in tomato 10DAA, Actual",[2]; first trial (columns c2/c3),75.8%
same,"% control of pest, Fruit Borer control in tomato 10DAA, Actual",[2]; second trial (columns c4/c5),86.4%
same,"% control of pest, Fruit Borer control in tomato 10DAA, Actual",[2]; third trial (columns c6/c7),88.4%
